Data on 37 compounds can be found in patent US20090137667A1, “Pesticide Delivery System” (priority 2006, published 2009).

Read-outs that look alike come from different tables or passages of the source.

A short description of data set [1]: log P measured by the procedure of Donovan and Pescatore, internally standardized with toluene and triphenylene. It is filed as physicochemical. On the procedure:
Compositions of herbicides were prepared using melts of mixtures of nonionic block copolymer and ethoxylated surfactants. Specifically, tristyrylphenol etoxylate (Soprophor BSU, Rhodia) was used in combination with Pluronic P123 (PEO20-PPO69-PEO20). The list of the herbicides and corresponding log P values (the log P values were measured according procedure described by Donovan and Pescatore, J Chromatography A 2002, 952, 47-61) are presented in Table 22. All log P values were measured at pH 7, except for clethodim, measured at pH 2. First, a stock blend of Pluronic P123 and Soprophor BSU was prepared by melting together 50 g of Pluronic P123 with 50 g of Soprophor BSU at 70° C. to form a clear, homogeneous melt. Composition of the […]

For data set [2] the following is noted: as referred in The Pesticide Manual, 11th edition (Table 18); cited from earlier work.
Data set [3] can be described thus: Stability and appearance of aqueous dispersions on storage. The conditions noted are these: Table 14, microblend with Pluronic P123:Soprophor BSU 1:1, storage at room temperature. It is filed as physicochemical.
A short description of data set [4]: Particle size of aqueous dispersions by dynamic light scattering. The conditions noted are these: Table 14, microblend with Pluronic P123:Soprophor BSU 1:1, insecticide 4.5 mg/ml, after 2 hours, Nanotrac 250. In kind it is physicochemical. The procedure: The suspensions were shaken for 40 h at room temperature followed by centrifugation for 10 min at 13,000 rpm. The concentration of Bifenthrin in the supernatants was determined by UV-spectroscopy. For this purpose, standard solutions containing from 0 to 0.58 mg/ml of Bifenthrin in ethanol were prepared using a stock solution of Bifenthrin in acetonitrile with concentration of 8.7 mg/ml. These solutions were used to obtain a calibration curve by measuring an absorbance at 260 nm using Perkin-Elmer Lambda 25 spectrophotometer. […]
Compositions of insecticides were prepared using melts of mixtures of nonionic block copolymer and ethoxylated surfactants. Specifically, tristyrylphenol etoxylate (Soprophor BSU, Rhodia) was used in combination with Pluronic P123 (PEO20-PPO69-PEO20). 250 mg of Pluronic P123 were mixed with 250 mg of Soprophor BSU, and 50 mg of fine powder of the insecticide, and were melted together for 1 hour. The composition of the copolymer/surfactant mixture was P123:Soprophor=1:1 by weight. The feeding copolymer/surfactant:insecticide ratio was 10:1. The melted compositions were cooled down to room temperature. […] 50 mg of the composition was rehydrated in 1 ml of water upon shaking for 1 hour. The total concentration of copolymer/surfactant components in the mixture was ca. 4.6%. The targeted content of insecticide in the microblend dispersion was 4.5 mg/ml.

Where [5] appears, read: pH = 2, based on logP assigned to toluene 2.605 and triphenylene 6.266.
[6] abbreviates: pH = 7, based on logP assigned to toluene 2.605 and triphenylene 6.266.
[7] abbreviates: pH 2, pH = 2, based on logP assigned to toluene 2.605 and triphenylene 6.266, read-out: logP, Average.
[8] abbreviates: pH 7, pH = 7, based on logP assigned to toluene 2.605 and triphenylene 6.266, read-out: logP, Average.
Where [9] appears, read: pH 7, measured at pH 7 (Table 22), read-out: Log P.

For orientation: Log P means the decadic logarithm of the partition coefficient of the neutral form, usually between octanol and water.

Consider Dinocap, for which, in data set [1] (measured at pH 7 (Table 22)), the “Log P” value is 5.43. Besides, the results for the “logP, Average” value in data set [1] (setting [5]) and in data set [1] (setting [6]) were 5.457 and 5.428, respectively.
Turning to `CCOC(=O)C(Cl)Cc1cc(-n2nc(C)n(C(F)F)c2=O)c(F)cc1Cl` (stereo not drawn) [Carfentrazone-ethyl], the “Log P” value in data set [2] is 3.36. For the same compound, the chromatographic logP was determined as 3.99 in data set [1] (setting [7]) and 4.02 in data set [1] (setting [8]).
`CCCCOC(=O)C(C)Oc1ccc(Oc2ccc(C(F)(F)F)cn2)cc1` (stereo not drawn) [Fluazifop-butyl]: the chromatographic logP in data set [1] (pH 2, logP, Average) amounted to 4.44; in data set [1] (pH 7, Log P) it was 4.42; in data set [1] (pH 7, logP, Average) it was 4.42.
With `CO/C=C(/C(=O)OC)c1ccccc1Oc1cc(Oc2ccccc2C#N)ncn1` [Azoxystrobin], the figures for the “logP, Average” value in data set [1] (setting [5]) and in data set [1] (setting [6]) were 3.074 and 3.050, respectively.
Turning to `Cc1ccc(N(SC(F)(Cl)Cl)S(=O)(=O)N(C)C)cc1` [Tolyfluanid], the “logP, Average” value in data set [1] (setting [5]) was determined as 3.934; in data set [1] (setting [6]), 3.930.
As for `CC(C)(C)C(O)(CCc1ccc(Cl)cc1)Cn1cncn1` (stereo not drawn) [Tebuconazole], the chromatographic logP in data set [1] (setting [7]) turned out to be 3.44; in data set [1] (setting [8]), 3.49.
As for `CSC(=O)c1c(C(F)F)nc(C(F)(F)F)c(C(=O)SC)c1CC(C)C` [Dithiopyr], the chromatographic logP in data set [1] (setting [7]) amounted to 4.32; in data set [1] (setting [9]) it was 4.28; in data set [1] (setting [8]), 4.28.
On to `CCCCC(O)(Cn1cncn1)c1ccc(Cl)cc1Cl` (stereo not drawn) [Hexaconazole], for which the chromatographic logP in data set [1] (pH 2, logP, Average) came to 3.35; in data set [1] (pH 7, logP, Average) it was 3.31.
As for `CCCN(CCC)c1c([N+](=O)[O-])cc(C(F)(F)F)cc1[N+](=O)[O-]` [Trifluran], the chromatographic logP in data set [1] (setting [9]) was found to be 5.08. For the same compound, the “logP, Average” value came out at 5.108 in data set [1] (setting [5]) and 5.084 in data set [1] (setting [6]).
`CC1(C)CON(Cc2ccccc2Cl)C1=O` [Clomazone]: the “Log P” value in data set [2] is 2.5.
`CCCSP(=O)(OCC)Oc1ccc(Br)cc1Cl` (stereo not drawn) [Profenofos]: the “Dispersion appearance in 24 hours” value in data set [3] is reported as “clear”. Besides, the “Particle size (nm)” value in data set [4] is listed as 13 nm.
In the case of `CCCCOCN(C(=O)CCl)c1c(CC)cccc1CC` [Butachlor], the chromatographic logP in data set [1] (pH 2, logP, Average) came to 4.12; in data set [1] (pH 7, Log P), 4.15; in data set [1] (pH 7, logP, Average), 4.15.
As to `COP(=S)(OC)Oc1c(Cl)cc(C)cc1Cl` [Tolclofos-methyl], the chromatographic logP worked out at 4.42 in data set [1] (pH 2, read-out: logP, Average); 4.42 in data set [1] (pH = 7, based on logP assigned to toluene 2.605 and triphenylene 6.266, read-out: logP, Average).
Turning to `CCC(CC)Nc1c([N+](=O)[O-])cc(C)c(C)c1[N+](=O)[O-]` [Pendimethalin], the “Log P” value in data set [2] is 5.18.
Regarding `N#CC(CCc1ccc(Cl)cc1)(Cn1cncn1)c1ccccc1` (stereo not drawn) [Febenuconazole], the “logP, Average” value in data set [1] (setting [5]) came out at 3.716; in data set [1] (setting [6]), 3.730.
Consider `COC(=O)N(OC)c1ccccc1COc1ccn(-c2ccc(Cl)cc2)n1` [Pyraclostrobin], for which the chromatographic logP turned out to be 4.53 in data set [1] (setting [7]) and 4.49 in data set [1] (setting [8]).
Consider `O=C(Nc1ccc(F)cc1F)c1cccnc1Oc1cccc(C(F)(F)F)c1` [Diflufenican], for which the values for the chromatographic logP in data set [1] (setting [7]), in data set [1] (setting [9]) and in data set [1] (setting [8]) were 4.81, 4.76 and 4.76, respectively.
As to `CCCC1COC(Cn2cncn2)(c2ccc(Cl)cc2Cl)O1` (stereo not drawn) [Propiconazole], the chromatographic logP in data set [1] (setting [7]) was determined as 3.3; in data set [1] (setting [8]), 3.29.
With `O=[N+]([O-])c1cc(C(F)(F)F)c(Cl)c([N+](=O)[O-])c1Nc1ncc(C(F)(F)F)cc1Cl` [Fluazinam], the figures for the chromatographic logP in data set [1] (setting [7]) and in data set [1] (setting [8]) were 5.03 and 4.72, respectively.
In the case of Spinosad, the “Dispersion appearance in 24 hours” value in data set [3] was “clear”. In addition, in data set [4], the “Particle size (nm)” value is given as 13 nm.
Take `COC[C@H](C)N(C(=O)CCl)c1c(C)csc1C` [Dimethenamid-P]: the “Log P” value in data set [2] is listed as 2.05.
On to `CCCN(CCC)c1c([N+](=O)[O-])cc(C(F)(F)F)c(N)c1[N+](=O)[O-]` [Prodiamine], for which, in data set [2], the “Log P” value was 4.10.
As to Abamectin, the “Dispersion appearance in 24 hours” value in data set [3] is “clear”. In addition, in data set [4], the “Particle size (nm)” value worked out at 13 nm.
As to `O=[N+]([O-])c1c(Cl)c(Cl)c(Cl)c(Cl)c1Cl` [Pentachloronitrobenzene], the chromatographic logP in data set [1] (setting [7]) turned out to be 5.39; in data set [1] (setting [8]) it was 5.34.
For the compound `CCCCCCCC(=O)Oc1c(I)cc(C#N)cc1I` [Ioxynil Octanoate], the results for the chromatographic logP in data set [1] (setting [7]), in data set [1] (setting [9]) and in data set [1] (setting [8]) were 5.67, 5.6 and 5.6, respectively.
For the compound `CC1(C)C(C=C(Cl)Cl)C1C(=O)OC(C#N)c1cccc(Oc2ccccc2)c1` (stereo not drawn) [Cypermethrin], the “Dispersion appearance in 24 hours” value in data set [3] is “clear”. Besides, in data set [4], the “Particle size (nm)” value is reported as 14 nm.
Regarding `N#Cc1nn(-c2c(Cl)cc(C(F)(F)F)cc2Cl)c(N)c1[S+]([O-])C(F)(F)F` (stereo not drawn) [Fipronil], the “Dispersion appearance in 24 hours” value in data set [3] was “clear”. For the same compound, the “Particle size (nm)” value in data set [4] worked out at 13 nm.
Consider `OC(Cn1cncn1)(c1ccc(F)cc1)c1ccccc1F` (stereo not drawn) [Flutriafol], for which the chromatographic logP in data set [1] (pH 2, logP, Average) came out at 2.12; in data set [1] (pH 7, logP, Average), 2.04.
For the compound `CCC(CC)Nc1c([N+](=O)[O-])cc(C)c(C)c1[N+](=O)[O-]` [Prowl], the figures for the “logP, Average” value in data set [1] (setting [5]) and in data set [1] (setting [6]) were 5.108 and 5.101, respectively.
The like results for Trisulfuron-methyl were, in that order, 3.542 and 0.510.
As to `N#Cc1c(Cl)c(Cl)c(Cl)c(C#N)c1Cl` [Chlorthalonil], the “logP, Average” value is 4.357 in data set [1] (setting [5]) and 4.234 in data set [1] (setting [6]).
For the compound `CCCOC/C(=N\c1ccc(Cl)cc1C(F)(F)F)n1ccnc1` [Triflumizole], the chromatographic logP in data set [1] (pH 2, logP, Average) is 2.6; in data set [1] (setting [8]), 3.89.
`CCCCC(C#N)(Cn1cncn1)c1ccc(Cl)cc1` (stereo not drawn) [Myclobutanil]: the values for the chromatographic logP in data set [1] (setting [7]) and in data set [1] (setting [8]) were 2.44 and 2.8, respectively.
For the compound `FC(F)(F)c1ccc(OCCCOc2c(Cl)cc(OCC=C(Cl)Cl)cc2Cl)nc1` [Pyridalyl], the “Dispersion appearance in 24 hours” value in data set [3] is on record as “clear”. In addition, the “Particle size (nm)” value in data set [4] stood at 14 nm.
Consider `C#CCOC(=O)[C@@H](C)Oc1ccc(Oc2ncc(Cl)cc2F)cc1` [Clodinofop-Propargyl], for which the “logP, Average” value in data set [1] (setting [5]) was 4.519; in data set [1] (setting [6]), 4.522.
Regarding `CON(C)C(=O)Nc1ccc(Cl)c(Cl)c1` [Linuron], the lipophilicity (Log P) in data set [2] is recorded as 3.00.
As to `CCSC(C)CC1CC(=O)C(/C(CC)=N/OC/C=C/Cl)=C(O)C1` (stereo not drawn) [Clethodim], the chromatographic logP in data set [1] (pH 2, measured at pH 2 (Table 22), read-out: Log P) came out at 4.24; in data set [1] (setting [7]) it was 4.25; in data set [1] (setting [8]) it was 0.813.
